Our source for the melting point values is patent US20100004159A1, “SUBSTITUTED IMIDAZOLONE DERIVATIVES, PREPARATIONS AND USES” (GENFIT, priority 2006, published 2010).

As for `CCCCC1=NC2(CCCC2)C(=O)N1Cc1ccc(-c2cc(OC(C)C(=O)O)ccc2CCC)cc1` (centres unmarked) [Compound 83, 2-butyl-1-[(3′-((1-carboxy-1-methylmethyl)oxy)-6′-propyl-biphenyl-4-yl)methyl]-4-spirocyclopentyl-1H-imidazol-5(4H)-one], the melting point – broadly, the temperature of the solid-liquid transition – was 76 °C.
Then `CCCCC1=NC2(CCCCC2)C(=O)N1Cc1ccc(-c2cc(OC(C(=O)O)C(C)C)ccc2F)cc1` (centres unmarked) [Compound 59, 2-butyl-1-[(3′-((1-carboxy-1-(1,1-dimethylmethyl)-methyl)oxy)-6′-fluoro-biphenyl-4-yl)methyl]-4-spirocyclohexyl-1H-imidazol-5(4H)-one], with 95 °C; and `CCCCC1=NC2(CCCCC2)C(=O)N1Cc1ccc(-c2cccc(OCC(=O)O)c2)cc1` [Compound 52, 2-butyl-1-[(3′-((1-carboxymethyl)oxy)biphenyl-4-yl)methyl]-4-spirocyclohexyl-1H-imidazol-5(4H)-one], with 82 to 85 °C; and `CCCCC1=NC2(CCCCC2)C(=O)N1Cc1ccc(-c2cccc(OC(C)(C)C(=O)O)c2)c(C)c1` [Compound 72], with 140 °C.
Then `CCCCC1=NC2(CCCC2)C(=O)N1Cc1cccc(-c2ccccc2OC(C)(C)C(=O)O)c1` [Compound 75, 2-butyl-1-[(2′-((1-carboxy-1,1-dimethylmethyl)oxy)biphenyl-3-yl)methyl]-4-spirocyclopentyl-1H-imidazol-5(4H)-one], with 167 °C.
Then `CCCCC1=NC2(CCCC2)C(=O)N1Cc1ccc(-c2ccc(CCC)c(OC(C)(C)C(=O)O)c2)cc1` [Compound 98, 2-butyl-1-[(3′-((1-carboxy-1,1-dimethylmethyl)oxy)-4′-propyl-biphenyl-4-yl)methyl]-4-spirocyclopentyl-1H-imidazol-5(4H)-one], with 74 °C; and `CCCCC1=NC2(CCCC2)C(=O)N1Cc1ccc(-c2ccc([N+](=O)[O-])c(OC(C)(C)C(=O)O)c2)cc1` [Compound 95, 2-butyl-1-[(3′-((1-carboxy-1,1-dimethylmethyl)oxy)-4′-nitro-biphenyl-4-yl)methyl]-4-spirocyclopentyl-1H-imidazol-5(4H)-one], with < 50 °C.
`CCCCC1=NC2(CCCCC2)C(=O)N1Cc1ccc(-c2cccc(OC(CC)C(=O)O)c2)cc1` (centres unmarked) [Compound 54, 2-butyl-1-[(3′-((1-carboxy-1-ethylmethyl)oxy)biphenyl-4-yl)methyl]-4-spirocyclohexyl-1H-imidazol-5(4H)-one] yielded a melting point of 170 °C.
Then `CCCC1=NC2(CCCC2)C(=O)N1Cc1ccc(-c2cccc(OC(C)(C)C(=O)O)c2)cc1` [Compound 16, 1-[(3′-((1-carboxy-1,1-dimethylmethyl)oxy)biphenyl-4-yl)methyl]-2-propyl-4-spirocyclopentyl-1H-imidazol-5(4H)-one], with 134 to 190 °C; and `CCCCC1=NC2(CCCCC2)C(=O)N1Cc1ccc(-c2cc(OC(C)(C)C(=O)O)ccc2F)cc1` [Compound 60, 2-butyl-1-[(3′-((1-carboxy-1,1-dimethylmethyl)oxy)-6′-fluoro-biphenyl-4-yl)methyl]-4-spirocyclohexyl-1H-imidazol-5(4H)-one], with 72 °C; and `CCCCC1=NC2(CCCC2)C(=O)N1Cc1ccc(C(=O)c2ccccc2OC(C)(C)C(=O)O)cc1` [Compound 7, 2-butyl-1-[[4-[(2-((1-carboxyl-1,1-dimethylmethyl)oxy)phenyl)carbonyl]phenyl]methyl]-4-spirocyclopentyl-1H-imidazol-5(4H)-one], with 85 to 90 °C.
Then `CCCCC1=NC2(CCCCC2)C(=O)N1Cc1ccc(-c2cccc(OC(C)C(=O)O)c2)c(C)c1` (centres unmarked) [Compound 70, 2-butyl-1-[(3′-((1-carboxy-1-methylmethyl)oxy)-3-methyl-biphenyl-4-yl)methyl]-4-spirocyclohexyl-1H-imidazol-5(4H)one], with 81 °C; and `CC(C)(Oc1cccc(-c2ccc(CN3C(=O)C4(CCCC4)N=C3C3CC3)cc2)c1)C(=O)O` [Compound 29, 1-[(3′-((1-carboxy-1,1-dimethylmethyl)oxy)biphenyl-4-yl)methyl]-2-cyclopropyl-4-spirocyclopentyl-1H-imidazol-5(4H)-one], with 175 to 177 °C; and `CCCCC1=NC(CC)(CC)C(=O)N1Cc1ccc(-c2cccc(OC(C)C(=O)O)c2)cc1` (centres unmarked) [Compound 66, 2-butyl-1-[(3′-((1-carboxy-1-methylmethyl)oxy)biphenyl-4-yl)methyl]-4,4-diethyl-1H-imidazol-5(4H)one], with 186 °C.
The compound `CCCCC1=NC2(CCCC2)C(=O)N1Cc1ccc(Cc2ccc(OC(C)(C)C(=O)O)cc2)cc1` [Compound 31] gave a melting point of 147 to 149 °C.
In the case of `CC(C)CC1=NC2(CCCC2)C(=O)N1Cc1ccc(-c2cccc(OC(C)(C)C(=O)O)c2)cc1` [Compound 27, 1-[(3′-((1-carboxy-1,1-dimethylmethyl)oxy)biphenyl-4-yl)methyl]-2-(2-methyl)propyl-4-spirocyclopentyl-1H-imidazol-5(4H)-one], the melting point lay within 213 to 216 °C.
In the case of `CCCCC1=NC(c2ccccc2)C(=O)N1Cc1ccc(C(=O)c2cccc(OC(C)(C)C(=O)O)c2)cc1` (centres unmarked) [Compound 15, 2-butyl-1-[[4-[(3-((1-carboxy-1,1-dimethylmethyl)oxy)phenyl)carbonyl]phenyl]methyl]-4-phenyl-1H-imidazol-5(4H)-one], the melting point is 115 to 120 °C.
With `CCCCC1=NC(CC)(CC)C(=O)N1Cc1ccc(-c2cc(OC(C)(C)C(=O)O)ccc2F)cc1` [Compound 69] the figure was 62 °C; with `CCCCC1=NC2(CCCC2)C(=O)N1Cc1ccc(-c2cc(OCC(=O)O)ccc2CCC)cc1` [Compound 84, 2-butyl-1-[(3′-((1-carboxymethyl)oxy)-6′-propyl-biphenyl-4-yl)methyl]-4-spirocyclopentyl-1H-imidazol-5(4H)-one], 76 °C.
Take `CCCCC1=NC2(CCCCC2)C(=O)N1Cc1ccc(-c2cc(OC(C)C(=O)O)ccc2F)cc1` (centres unmarked) [Compound 57, 2-butyl-1-[(3′-((1-carboxy-1-methylmethyl)oxy)-6′-fluoro-biphenyl-4-yl)methyl]-4-spirocyclohexyl-1H-imidazol-5(4H)-one]: the melting point amounted to 96 °C.
With `CCCCC1=NC2(CCCCC2)C(=O)N1Cc1ccc(-c2cccc(OC3(C(=O)O)CCC3)c2)cc1` [Compound 67, 2-butyl-1-[(3′-((1-carboxy-1-spirocyclobutylmethyl)oxy)biphenyl-4-yl)methyl]-4-spirocyclohexyl-1H-imidazol-5(4H)-one] the figure was 184 °C; with `CCCCC1=NC2(CCCC2)C(=O)N1Cc1ccc(C(=O)c2ccc(OC(C)(C)C(=O)O)cc2)cc1` [Compound 9, 2-butyl-1-[[4-[(4-((1-carboxyl-1,1-dimethylmethyl)oxy)phenyl)carbonyl]phenyl]methyl]-4-spirocyclopentyl-1H-imidazol-5(4H)-one], 90 to 99 °C.
Then `CCCCC1=NC2(CCCCC2)C(=O)N1Cc1ccc(-c2cc(OC(C)(C)C(=O)O)ccc2Br)cc1` [Compound 22, 1-[(6′-bromo-3′-((1-carboxy-1,1-dimethylmethyl)oxy)biphenyl-4-yl)methyl]-2-butyl-4-spirocyclohexyl-1H-imidazol-5(4H)-one], with 170 to 172 °C; and `CCCCC1=NC2(CCCC2)C(=O)N1Cc1ccc(-c2cccc(OC(C)(C)C(=O)O)c2F)cc1` [Compound 78, 2-butyl-1-[(3′-((1-carboxy-1,1-dimethylmethyl)oxy)-2′-fluoro-biphenyl-4-yl)methyl]-4-spirocyclopentyl-1H-imidazol-5(4H)-one], with 162 °C.
Then `CCCCC1=NC2(CCCCC2)C(=O)N1Cc1ccc(-c2cccc(OC(C(=O)O)C(C)C)c2)cc1` (centres unmarked) [Compound 55, 2-butyl-1-[(3′-((1-carboxy-1-(1,1-dimethylmethyl)methyl)oxy)-biphenyl-4-yl)methyl]-4-spirocyclohexyl-1H-imidazol-5(4H)-one], with 105 °C; and `CCCCC1=NC2(CCCC2)C(=O)N1Cc1ccc(-c2cccc(OCC#N)c2)cc1` [Compound 23, 2-butyl-1-[(3′-(cyanomethoxy)biphenyl-4-yl)methyl]-4-spirocyclopentyl-1H-imidazol-5(4H)-one], with 128 to 130 °C; and `CCCCC1=NC(c2ccccc2)C(=O)N1Cc1ccc(-c2cc(Br)ccc2OC(C)(C)C(=O)O)cc1` (centres unmarked) [Compound 26, 1-[(5′-bromo-2′-((1-carboxy-1,1-dimethylmethyl)oxy)biphenyl-4-yl)methyl]-2-butyl-4-phenyl-1H-imidazol-5(4H)-one], with 199 to 201 °C.
As to `CC(C)(Oc1cccc(-c2ccc(CN3C(=O)C4(CCCC4)N=C3Cc3ccccc3)cc2)c1)C(=O)O` [Compound 28, 2-benzyl-1-[(3′-((1-carboxy-1,1-dimethylmethyl)oxy)biphenyl-4-yl)methyl]-4-spirocyclopentyl-1H-imidazol-5(4H)-one], the melting point was in the range of 149 to 153 °C.
With `CCCCC1=NC2(CCCC2)C(=O)N1Cc1ccc(-c2ccc(CC(C)C)c(OC(C)(C)C(=O)O)c2)cc1` [Compound 81, 2-butyl-1-[(3′-((1-carboxy-1,1-dimethylmethyl)oxy)-4′-isobutyl-biphenyl-4-yl)methyl]-4-spirocyclopentyl-1H-imidazol-5(4H)-one] the figure was 78 °C.
